# In US20140357512A1, “HISTONE DEACETYLASE (HDAC) BIOMARKERS IN MULTIPLE MYELOMA” (priority 2013, published 2014):
# Test system: human myeloma cell line MM.1S
# Experiment: SILAC acetylated-lysine peptide profiling, HDAC inhibitor vs DMSO (light/heavy ratio)
# Assay type: cell-based
# Excerpt: An embodiment of the invention comprises utilizing the SILAC method in order to quantitate changes in protein expression between two or more populations of cells. The SILAC method is a technique based on mass spectrometry that detects differences in protein abundance among samples using non-radioactive isotopic labeling. The SILAC method is known in the art, and described in detail in Ong et al., “Stable Isotope Labeling by Amino Acids in Cell Culture, SILAC, as a Simple and Accurate Approach to Expression Proteomics”, Molecular & Cellular Proteomics, vol. 1, pp. 376-386 (2002), which is incorporated herein by reference in its entirety.
# Briefly, the SILAC method involves growing two populations of cells in cell culture. The first population of cells is grown in growth media containing normal amino acids (“normal media”). The second population of cells is grown in media lacking a standard essential amino acid (such as lysine), but is then supplemented with a non-radioactive, isotopically labeled form of that essential amino acid (such as lysine labeled with ^13C atoms, rather than normal ^12C atoms), which is called “heavy media”. When the two populations of cells are each growing in the medium, they incorporate the amino acids into all of their proteins. The growth of cells maintained in the heavy media is no different from that in normal media. All peptides containing the heavy amino acids are heavier than their normal counterparts. The cells from each of the two populations of cells are lysed. The lysates from each of the two cell populations are then combined. The combined cell lysates are then analyzed by mass spectrometry. Pairs of chemically identical peptides of different stable isotope composition can be differentiated in a mass spectrometer due to their difference in mass. The ratio of peak intensities in the mass spectrum for such peptide pairs reflects the abundance ratio for the two proteins.
# This example describes SILAC studies that were performed to compare the effects of three different HDAC inhibitors (Compound A, Compound B, and tubastatin A) to a control on a human multiple myeloma cell line. The HDAC inhibitors were also compared amongst themselves to determine differences in their effects.
# A human myeloma cell line MM.1S was grown using either ^12C (light) or ^13C (heavy) lysine containing culture medium. The “heavy” cells were treated with DMSO as the control, and the “light” cells were treated with a single HDAC inhibitor at 37° C. for 6 hours. The heavy and light cells were lysed, and the lysates were mixed in 1:1 ratio and digested with the protease trypsin. The acetylated lysine containing peptides (due to the action of the HDAC inhibitor) in the digested peptide pool were captured by a non-specific anti-acetylated lysine antibody cocktail (the antibodies identify both light and heavy acetylated peptides), and subjected to mass spectrometry analysis in order to identify thousands of individual peptides.
# Thousands of peptides were identified in pairs (^12C and ^13C) due to their known mass differences. The amino acid sequence and quantitative ratio (Light/Heavy) of a given peptide in two differentially treated cell lysates were then determined and annotated with their possible protein (gene) sources.
# As stated above, three HDAC inhibitors (Compound A, Compound B, and Tubastatin A) were used. Thus, the SILAC method was performed three times, with a different HDAC inhibitor compared to a control each time. Accordingly, there are three pairs of quantitative data in the table below, i.e., Compound A:DMSO, Compound B:DMSO, and Tubastatin A:DMSO. A cut-off of 1.30 fold of change (increase or decrease) was then used to determine “changed” or “+” in the table, and any peptides with a fold of change less than 1.3 fold were determined to be “unchanged” or “0” in the table. Those peptides that were not identified were marked as “NA” in the table. […]
compound,measurement,setting,value
CN1CCc2c(c3ccccc3n2Cc2ccc(C(=O)NO)cc2)C1 [Tub A],L/H ratio of acetylated peptide MYFDK(ac)YVLKPATEGK (SEQ ID NO: 23),"ATAD3A [491], log 2 scale, drug vs DMSO",0.62
same,L/H ratio of acetylated peptide IVEYEK(ac)EMEK (SEQ ID NO: 24),"ATP5H [117], log 2 scale, drug vs DMSO",0.63
same,L/H ratio of acetylated peptide YYNK(ac)YINVK (SEQ ID NO: 12),"ATP5J2 [54], log 2 scale, drug vs DMSO",0.66
same,light to heavy ratio (L/H ratio) of acetylated peptide QNK(ac)LEQVEK (SEQ ID NO: 271),"ATP synthase subunit O mitochondrial [54], ATP50, drug:DMSO",0.45 log 2
same,light to heavy ratio (L/H ratio) of acetylated peptide STVAQLVK(ac)R (SEQ ID NO: 552),"ATP synthase subunit alpha mitochondrial [261], gene ATP5A1, inhibitor:DMSO",0.00 log 2
same,light to heavy ratio (L/H ratio) of acetylated peptide ISEQSDAK(ac)LK (SEQ ID NO: 600),"ATP synthase subunit alpha mitochondrial [539], gene ATP5A1, inhibitor:DMSO",0.00 log 2
same,light to heavy ratio (L/H ratio) of acetylated peptide HVVQSISTQQEK(ac)ETIAK (SEQ ID NO: 307),"ATP synthase subunit b mitochondrial [233], ATP5F1, drug:DMSO",0.62 log 2
same,light to heavy ratio (L/H ratio) of acetylated peptide IVNSAQTGSFK(ac)QLTVK (SEQ ID NO: 279),"ATP synthase subunit g mitochondrial [66], ATP5L, drug:DMSO",0.77 log 2
same,light to heavy ratio (L/H ratio) of acetylated peptide ELDPIQK(ac)LFVDK (SEQ ID NO: 365),"ATP synthase-coupling factor 6 mitochondrial [41], ATP5J, drug:DMSO",0.00 log 2
same,light to heavy ratio (L/H ratio) of acetylated peptide FEDPK(ac)FEVIEKPQA (SEQ ID NO: 325),"ATP synthase-coupling factor 6 mitochondrial [99], ATP5J, drug:DMSO",0.00 log 2
same,"light to heavy ratio (L/H ratio) of acetylated peptide, log 2 scale","AVEEK(ac)IEWLESHQDADIEDFK (SEQ ID NO: 172), 78 kDa glucose-regulated protein [601], HSPA5",−0.54
same,"light to heavy ratio (L/H ratio) of acetylated peptide, log 2 scale","AVIWPQYVK(ac)DR (SEQ ID NO: 156), cDNA FLJ59630 highly similar to Growth hormone-inducible transmembrane protein [124], GHITM",0.47
same,"light to heavy ratio (L/H ratio) of acetylated peptide, log 2 scale","AVK(ac)HAEELER (SEQ ID NO: 225), Isoform 2 of Signal recognition particle 68 kDa protein [164], SRP68",−1.00
same,"light to heavy ratio (L/H ratio) of acetylated peptide, log 2 scale","AYGGSMCAK(ac)CVR (SEQ ID NO: 204), 60S ribosomal protein L34 [85], RPL34",0.40
same,L/H ratio of acetylated peptide,"AYHLQK(ac)STCGK (SEQ ID NO: 443), 60S ribosomal protein L37 [31], RPL37",0.00 log 2
same,light to heavy ratio (L/H ratio) of acetylated peptide AFAK(ac)ELFLGK (SEQ ID NO: 627),"Acyl-CoA dehydrogenase family member 9 mitochondrial [41], gene ACAD9, inhibitor:DMSO",0.00 log 2
same,light to heavy ratio (L/H ratio) of acetylated peptide YSAK(ac)DYFFK (SEQ ID NO: 319),"Alpha-soluble NSF attachment protein [203], NAPA, drug:DMSO",0.44 log 2
same,light to heavy ratio (L/H ratio) of acetylated peptide PAQGAK(ac)YR (SEQ ID NO: 305),"Annexin A6 [9], ANXA6, drug:DMSO",0.39 log 2
same,light to heavy ratio (L/H ratio) of acetylated peptide TKYEK(ac)SLYSMIK (SEQ ID NO: 270),"Annexin A6 [299], ANXA6, drug:DMSO",0.42 log 2
same,light to heavy ratio (L/H ratio) of acetylated peptide NDTSGEYK(ac)K (SEQ ID NO: 285),"Annexin A6 [314], ANXA6, drug:DMSO",0.70 log 2
same,light to heavy ratio (L/H ratio) of acetylated peptide AINEAYK(ac)EDYHK (SEQ ID NO: 282),"Annexin A6 [478], ANXA6, drug:DMSO",0.53 log 2
same,light to heavy ratio (L/H ratio) of acetylated peptide NKPLFFADK(ac)LYK (SEQ ID NO: 298),"Annexin A6 [607], ANXA6, drug:DMSO",0.51 log 2
same,light to heavy ratio (L/H ratio) of acetylated peptide GAGTDEK(ac)TLTR (SEQ ID NO: 621),"Annexin A6 [620], gene ANXA6, inhibitor:DMSO",0.00 log 2
same,"light to heavy ratio (L/H ratio), log 2 scale, acetylated peptide EFIEK(ac)YDK (SEQ ID NO: 779)","Annexin A6 [644], gene ANXA6, drug:DMSO",0.00
same,light to heavy ratio (L/H ratio) of acetylated peptide DDNGK(ac)PYVLPSVR (SEQ ID NO: 579),"Aspartate aminotransferase mitochondrial [73], gene GOT2, inhibitor:DMSO",0.00 log 2
same,light to heavy ratio (L/H ratio) of acetylated peptide ELK(ac)EIQYGIR (SEQ ID NO: 540),"Branched-chain-amino-acid aminotransferase [337], gene BCAT2, inhibitor:DMSO",0.00 log 2
same,"light to heavy ratio (L/H ratio), log 2 scale, acetylated peptide ESCSK(ac)HASGTSFHLPQPSFR (SEQ ID NO: 780)","Bromodomain and PHD finger-containing protein 3 [105], gene BRPF3, drug:DMSO",0.00
same,L/H ratio of acetylated peptide FYGDEEK(ac)DKGLQTSQDAR (SEQ ID NO: 25),"CALR [62], log 2 scale, drug vs DMSO",−0.97
same,light to heavy ratio (L/H ratio) of acetylated peptide AGLQVYNK(ac)CWK (SEQ ID NO: 260),"CD59 glycoprotein [63], CD59, drug:DMSO",−0.45 log 2
same,L/H ratio of acetylated peptide ALEHFTDLYDIK(ac)R (SEQ ID NO: 26),"CLTC [637], log 2 scale, drug vs DMSO",−0.62
same,L/H ratio of acetylated peptide FK(ac)ESFAEMNR (SEQ ID NO: 1),"COX4I1 [87], log 2 scale, drug vs DMSO",0.52
same,L/H ratio of acetylated peptide […](ac)QLCTIPR (SEQ ID NO: 27),"CREBBP [1216], log 2 scale, drug vs DMSO",0.60
same,L/H ratio of acetylated peptide TNK(ac)NK(ac)SSISR (SEQ ID NO: 13),"CREBBP [1595:1597], log 2 scale, drug vs DMSO",0.64
same,L/H ratio of acetylated peptide ALK(ac)DLYCHK (SEQ ID NO: 28),"CREM [240], log 2 scale, drug vs DMSO",0.43
same,L/H ratio of acetylated peptide LYCPK(ac)CMDVYTPK (SEQ ID NO: 29),"CSNK2B [139], log 2 scale, drug vs DMSO",−0.39
same,light to heavy ratio (L/H ratio) of acetylated peptide FVLSSGK(ac)FYGDEEKDK (SEQ ID NO: 281),"Calreticulin [55], CALR, drug:DMSO",−0.51 log 2
same,light to heavy ratio (L/H ratio) of acetylated peptide VHVIFNYK(ac)GK (SEQ ID NO: 273),"Calreticulin [151], CALR, drug:DMSO",−0.58 log 2
same,light to heavy ratio (L/H ratio) of acetylated peptide NVLINK(ac)DIR (SEQ ID NO: 257),"Calreticulin [159], CALR, drug:DMSO",−0.88 log 2
same,light to heavy ratio (L/H ratio) of acetylated peptide TCDLVGEK(ac)GK (SEQ ID NO: 289),"Cation-dependent mannose-6-phosphate receptor [38], M6PR, drug:DMSO",−0.81 log 2
same,light to heavy ratio (L/H ratio) of acetylated peptide EFALK(ac)HLPNDPMFK (SEQ ID NO: 583),"Citrate synthase mitochondrial [366], gene CS, inhibitor:DMSO",0.00 log 2
same,"light to heavy ratio (L/H ratio), log 2 scale, acetylated peptide MIYASSK(ac)DAIKK (SEQ ID NO: 763)","Cofilin-1 [121], gene CFL1, drug:DMSO",0.00
same,light to heavy ratio (L/H ratio) of acetylated peptide AAEEVEAK(ac)FK (SEQ ID NO: 328),"Coiled-coil-helix-coiled-coil-helix domain-containing protein 3 mitochondrial [173], CHCHD3, drug:DMSO",0.00 log 2
same,light to heavy ratio (L/H ratio) of acetylated peptide ASEIGEK(ac)YR (SEQ ID NO: 586),"Conserved hypothetical protein [484], gene KIAA0947, inhibitor:DMSO",0.00 log 2
same,light to heavy ratio (L/H ratio) of acetylated peptide DHCVAHK(ac)LFNNLK (SEQ ID NO: 608),"Cytochrome b-c1 complex subunit 6 mitochondrial [85], gene UQCRH, inhibitor:DMSO",0.00 log 2
